Values quoted from earlier work in patent US6689384B2, “Stable pergolide mesylate and process for making same” (Teva Pharmaceuticals Industries Ltd., priority 2000, dated 2004).
Counter-ions that a name gives are not always drawn.

Key:
[1] = test system: plasma proteins
[2] = test system: serum concentrations of growth hormone; conditions: in humans
[3] = test system: secretion of prolactin; conditions: in humans
[4] = test system: serum concentrations of luteinizing hormone; conditions: in humans
[5] = oral administration, 14C radio-labeled

Structure (SMILES)	bound to plasma proteins [1]	serum concentrations of growth hormone [2]	secretion of prolactin [3]	serum concentrations of luteinizing hormone [4]	administered radioactivity recovered from expired CO2 [5] [%]	administered radioactivity recovered from the urine [5]
CCCN1C[C@H](CSC)C[C@@H]2c3cccc4[nH]cc(c34)C[C@H]21 [Pergolide]	approximately 90%					
CCCN1CC(CSC)CC2c3cccc4[nH]cc(c34)CC21 (stereo not drawn) [Pergolide mesylate, 8(beta)-[(Methylthio)methyl]-6-propylergoline monomethanesulfonate]		transient rise	inhibits	decrease	~5	approximately 55%
